For data set [1], the system named is locally advanced rectal cancer. Description: Time to local recurrence after adjuvant pelvic irradiation plus 5-FU infusion (Example 1). It is filed as in vivo, human. How it is done:
Methods: Seventy-three (73) patients with locally advanced rectal cancer (UICC stage II and III) were selected. They had been previously treated with adjuvant pelvic irradiation (45 Gy) to the whole pelvis with an additional boost up to 54 Gy plus 5-FU infusion therapy following tumor resection tissue acquisition during surgery. QRT-PCR (a fluorescence-based, quantitative real-time detection method (Taqman®)) was performed on RNA extracted from formalin-fixed, paraffin-embedded, laser-capture-microdissected tissue to establish gene expression levels. The mRNA was reverse transcribed to cDNA and the genes of interest were quantified as well as an internal reference gene (β-Actin) as a control. All gene expression levels were log-transformed prior to analysis. The maximal c^2 method of Miller, Siegmund (Miller R. and Siegmund D. Biometrics (1982) 38:1011-1016) and Halpem (Halpem J. (1982) Biometrics 38:1017-1023) was used to determine which gene expression best segregated patients into poor- and good-prognosis subgroups 2000 bootstrap-like simulations were used to estimate the distribution of the maximal c^2 statistics under the null hypothesis of no association.

For data set [2], the system named is locally advanced rectal cancer. Nature of the data set: Pelvic recurrence after 5-FU and pelvic radiation by TS promoter genotype (Example 2). It is filed as in vivo, human. Conditions: pre- or post-operative 5-FU and pelvic radiation. As to the method:
Methods: Forty-three (43) patients with locally advanced rectal cancer, who were treated with either pre-operative or post-operative 5-FU and pelvic radiation were analyzed. Genomic DNAs were extracted from paraffin-embedded tissue samples. Patients' genotype for the TS polymorphism was determined by polymerase chain reaction (PCR) amplification of TS promoter region.

`Cc1ccc(-c2cc(C(F)(F)F)nn2-c2ccc(S(N)(=O)=O)cc2)cc1` [celebrex]: the “Effect on neurotoxicity in patients treated with oxaliplatin” value (celebrex 200-400 mg day, p<0.01) is recorded as “protecting against neurotoxicity”. Besides, the “Patients who developed grade II or III neurotoxicity” value (of 56 patients with celebrex therapy in combination with oxaliplatin/5-FU chemotherapy) amounted to 3 patients.

Turning to `O=c1[nH]cc(F)c(=O)[nH]1` [5-FU, 5-fluorouracil], in data set [1] (total patients n=73, UICC stage II and III, pelvic irradiation 45 Gy with boost up to 54 Gy plus 5-FU infusion after resection), the “Probability ± SE of 5-yr recurrence” value came to 0.53 ± 0.08. Besides, the “Median time to recurrence” value in data set [1] (total patients n=73, pelvic irradiation plus 5-FU infusion after resection) came out at 57.0 Month. In addition, the “Pelvic recurrences, patients” value in data set [2] (TS (2/2) and (2/3) genotypes) is 37%; in data set [2] (TS (3/3) genotype), 87%.

The values above are taken from patent US7662553B2, “Polymorphisms in the ERCC1 gene for predicting treatment outcome” (University of Southern California, priority 2002, dated 2010).
